Reference: ChEMBL document CHEMBL3991601, “The target landscape of clinical kinase drugs” (Science, 2017)
Activity calls are given as the source filed them. For most assays here, no stated cut-off is given here; in the data, actives have a measured Kd and inactives only a lower limit.

How the values were obtained:
[1] = target: T1, Glycogen phosphorylase, liver form (Homo sapiens, UniProt P06737); type: subcellular, K-562, COLO 205, SK-N-BE(2) and MV-4-11, Cell lysate; details: read-out: Kd apparent
T1 sequence (P06737 whole entry): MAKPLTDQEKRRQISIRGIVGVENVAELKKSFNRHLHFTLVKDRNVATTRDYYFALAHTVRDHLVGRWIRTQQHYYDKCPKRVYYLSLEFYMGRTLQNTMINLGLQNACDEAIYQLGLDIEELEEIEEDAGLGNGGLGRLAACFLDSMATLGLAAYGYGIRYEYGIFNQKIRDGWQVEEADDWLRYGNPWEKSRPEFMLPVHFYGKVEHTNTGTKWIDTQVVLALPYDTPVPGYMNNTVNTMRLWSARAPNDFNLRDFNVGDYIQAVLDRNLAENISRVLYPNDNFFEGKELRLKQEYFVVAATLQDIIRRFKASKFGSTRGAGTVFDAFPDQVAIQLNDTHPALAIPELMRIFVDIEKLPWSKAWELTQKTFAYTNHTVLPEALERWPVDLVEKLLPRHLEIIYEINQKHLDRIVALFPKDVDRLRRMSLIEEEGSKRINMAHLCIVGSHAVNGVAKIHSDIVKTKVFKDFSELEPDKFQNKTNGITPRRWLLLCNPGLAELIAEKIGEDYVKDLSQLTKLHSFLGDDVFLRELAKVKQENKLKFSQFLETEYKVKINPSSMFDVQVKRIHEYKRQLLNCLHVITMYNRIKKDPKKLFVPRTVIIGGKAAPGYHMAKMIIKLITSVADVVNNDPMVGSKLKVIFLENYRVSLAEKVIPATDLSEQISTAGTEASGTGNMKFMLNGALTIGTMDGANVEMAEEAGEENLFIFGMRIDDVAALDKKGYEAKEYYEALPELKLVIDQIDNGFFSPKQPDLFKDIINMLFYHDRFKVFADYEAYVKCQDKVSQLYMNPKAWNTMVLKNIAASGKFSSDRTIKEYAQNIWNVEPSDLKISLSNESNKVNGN

[2] = target: T2, Discoidin domain-containing receptor 2 (Homo sapiens, UniProt Q16832)
T2 sequence (Q16832 whole entry): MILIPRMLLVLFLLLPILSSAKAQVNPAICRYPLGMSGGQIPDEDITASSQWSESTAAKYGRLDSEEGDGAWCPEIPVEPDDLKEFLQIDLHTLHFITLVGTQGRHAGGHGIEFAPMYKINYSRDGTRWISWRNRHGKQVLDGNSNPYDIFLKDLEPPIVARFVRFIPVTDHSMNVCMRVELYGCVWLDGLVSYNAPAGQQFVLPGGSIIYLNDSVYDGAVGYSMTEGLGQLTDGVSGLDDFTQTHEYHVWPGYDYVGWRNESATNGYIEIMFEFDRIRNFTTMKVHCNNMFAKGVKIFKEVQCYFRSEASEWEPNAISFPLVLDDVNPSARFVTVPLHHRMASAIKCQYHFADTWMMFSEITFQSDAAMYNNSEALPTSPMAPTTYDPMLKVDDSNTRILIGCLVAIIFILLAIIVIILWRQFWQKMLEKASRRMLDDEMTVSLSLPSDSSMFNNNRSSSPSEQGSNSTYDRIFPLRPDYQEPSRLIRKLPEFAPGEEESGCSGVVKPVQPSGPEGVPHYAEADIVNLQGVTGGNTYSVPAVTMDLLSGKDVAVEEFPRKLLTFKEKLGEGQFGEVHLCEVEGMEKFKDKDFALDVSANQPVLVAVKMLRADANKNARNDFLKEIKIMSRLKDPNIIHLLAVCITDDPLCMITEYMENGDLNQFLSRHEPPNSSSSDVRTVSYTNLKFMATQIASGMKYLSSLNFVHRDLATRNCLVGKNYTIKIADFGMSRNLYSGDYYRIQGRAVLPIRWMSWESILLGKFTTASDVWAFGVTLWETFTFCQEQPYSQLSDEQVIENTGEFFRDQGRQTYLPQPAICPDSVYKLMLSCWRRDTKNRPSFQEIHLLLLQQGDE

[3] = target: T3, Receptor-type tyrosine-protein kinase FLT3 (Homo sapiens, UniProt P36888)
T3 sequence (P36888 whole entry): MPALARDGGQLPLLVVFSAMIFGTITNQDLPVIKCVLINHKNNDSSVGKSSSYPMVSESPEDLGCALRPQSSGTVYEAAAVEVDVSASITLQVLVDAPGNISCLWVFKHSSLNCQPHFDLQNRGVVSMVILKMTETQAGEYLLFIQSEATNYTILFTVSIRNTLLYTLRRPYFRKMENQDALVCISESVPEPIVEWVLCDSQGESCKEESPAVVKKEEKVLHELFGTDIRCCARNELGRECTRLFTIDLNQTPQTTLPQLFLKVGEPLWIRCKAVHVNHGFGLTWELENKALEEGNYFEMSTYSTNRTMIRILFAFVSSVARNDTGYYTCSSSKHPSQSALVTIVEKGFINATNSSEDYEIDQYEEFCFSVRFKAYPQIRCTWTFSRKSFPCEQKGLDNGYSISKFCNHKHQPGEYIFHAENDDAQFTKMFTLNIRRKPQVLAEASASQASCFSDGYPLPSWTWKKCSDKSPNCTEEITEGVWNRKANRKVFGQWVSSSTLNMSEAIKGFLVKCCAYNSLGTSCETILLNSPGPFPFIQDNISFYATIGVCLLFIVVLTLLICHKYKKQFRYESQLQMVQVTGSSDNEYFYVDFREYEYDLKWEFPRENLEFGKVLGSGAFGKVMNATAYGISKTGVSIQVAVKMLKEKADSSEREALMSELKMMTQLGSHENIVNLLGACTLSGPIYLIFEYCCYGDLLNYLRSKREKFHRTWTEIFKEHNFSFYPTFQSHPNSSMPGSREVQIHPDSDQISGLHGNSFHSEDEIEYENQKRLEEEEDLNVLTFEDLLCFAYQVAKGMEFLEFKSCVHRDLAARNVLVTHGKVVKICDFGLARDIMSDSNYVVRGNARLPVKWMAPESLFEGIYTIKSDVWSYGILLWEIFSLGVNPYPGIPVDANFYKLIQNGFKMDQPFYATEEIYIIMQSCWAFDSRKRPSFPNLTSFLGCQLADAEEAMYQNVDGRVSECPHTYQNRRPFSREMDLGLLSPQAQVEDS

[4] = target: Rho-associated protein kinase 1 (Homo sapiens, UniProt Q13464)
TGF-beta receptor type-2 = TGF-beta receptor type-2 (Homo sapiens, UniProt P37173)
[5] = target: Cyclin-dependent kinase 5 (Homo sapiens, UniProt Q00535)
Sequence of Cyclin-dependent kinase 5 (Q00535 whole entry): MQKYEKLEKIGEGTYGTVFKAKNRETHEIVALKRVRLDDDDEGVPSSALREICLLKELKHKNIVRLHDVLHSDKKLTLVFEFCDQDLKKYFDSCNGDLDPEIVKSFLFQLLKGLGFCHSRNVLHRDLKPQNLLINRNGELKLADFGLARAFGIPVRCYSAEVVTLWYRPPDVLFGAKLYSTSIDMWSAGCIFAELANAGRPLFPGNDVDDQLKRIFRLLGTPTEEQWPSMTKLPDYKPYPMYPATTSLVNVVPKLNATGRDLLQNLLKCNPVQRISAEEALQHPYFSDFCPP

Sequence of Rho-associated protein kinase 1 (Q13464 whole entry): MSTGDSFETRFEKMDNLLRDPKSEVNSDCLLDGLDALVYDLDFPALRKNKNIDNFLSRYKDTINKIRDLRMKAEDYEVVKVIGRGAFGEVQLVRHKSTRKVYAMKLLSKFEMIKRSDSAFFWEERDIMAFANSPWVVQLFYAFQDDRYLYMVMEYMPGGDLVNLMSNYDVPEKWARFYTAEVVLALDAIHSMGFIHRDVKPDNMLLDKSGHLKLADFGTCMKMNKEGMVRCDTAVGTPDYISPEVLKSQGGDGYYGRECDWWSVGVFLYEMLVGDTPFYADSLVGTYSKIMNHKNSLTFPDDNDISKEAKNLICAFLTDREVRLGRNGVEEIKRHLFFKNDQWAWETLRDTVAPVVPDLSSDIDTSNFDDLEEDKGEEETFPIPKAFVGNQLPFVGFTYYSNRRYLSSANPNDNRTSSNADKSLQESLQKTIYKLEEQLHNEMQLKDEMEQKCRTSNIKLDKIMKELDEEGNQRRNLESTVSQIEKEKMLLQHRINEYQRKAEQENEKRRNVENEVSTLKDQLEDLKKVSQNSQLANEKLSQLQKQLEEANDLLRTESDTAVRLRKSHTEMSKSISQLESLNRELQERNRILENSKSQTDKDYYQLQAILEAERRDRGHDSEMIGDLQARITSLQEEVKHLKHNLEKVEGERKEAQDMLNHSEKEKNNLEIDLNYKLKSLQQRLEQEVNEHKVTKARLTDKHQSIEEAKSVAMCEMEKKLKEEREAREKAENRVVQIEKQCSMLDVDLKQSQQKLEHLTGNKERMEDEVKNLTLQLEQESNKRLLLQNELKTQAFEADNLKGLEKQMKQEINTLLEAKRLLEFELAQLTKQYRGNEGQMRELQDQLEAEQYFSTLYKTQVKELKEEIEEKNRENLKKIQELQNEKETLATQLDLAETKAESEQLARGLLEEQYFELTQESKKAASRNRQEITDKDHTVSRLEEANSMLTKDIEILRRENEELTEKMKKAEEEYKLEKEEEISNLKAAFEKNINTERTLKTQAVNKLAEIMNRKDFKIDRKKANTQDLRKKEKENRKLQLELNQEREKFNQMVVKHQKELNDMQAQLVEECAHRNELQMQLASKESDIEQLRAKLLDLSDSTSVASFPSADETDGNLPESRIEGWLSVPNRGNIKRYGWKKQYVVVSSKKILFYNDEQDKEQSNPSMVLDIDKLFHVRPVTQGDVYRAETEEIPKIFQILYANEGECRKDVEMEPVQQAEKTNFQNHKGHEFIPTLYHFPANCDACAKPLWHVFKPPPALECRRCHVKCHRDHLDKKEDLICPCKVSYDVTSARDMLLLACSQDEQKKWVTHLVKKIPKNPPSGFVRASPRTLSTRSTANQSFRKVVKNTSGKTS
Sequence of TGF-beta receptor type-2 (P37173 whole entry): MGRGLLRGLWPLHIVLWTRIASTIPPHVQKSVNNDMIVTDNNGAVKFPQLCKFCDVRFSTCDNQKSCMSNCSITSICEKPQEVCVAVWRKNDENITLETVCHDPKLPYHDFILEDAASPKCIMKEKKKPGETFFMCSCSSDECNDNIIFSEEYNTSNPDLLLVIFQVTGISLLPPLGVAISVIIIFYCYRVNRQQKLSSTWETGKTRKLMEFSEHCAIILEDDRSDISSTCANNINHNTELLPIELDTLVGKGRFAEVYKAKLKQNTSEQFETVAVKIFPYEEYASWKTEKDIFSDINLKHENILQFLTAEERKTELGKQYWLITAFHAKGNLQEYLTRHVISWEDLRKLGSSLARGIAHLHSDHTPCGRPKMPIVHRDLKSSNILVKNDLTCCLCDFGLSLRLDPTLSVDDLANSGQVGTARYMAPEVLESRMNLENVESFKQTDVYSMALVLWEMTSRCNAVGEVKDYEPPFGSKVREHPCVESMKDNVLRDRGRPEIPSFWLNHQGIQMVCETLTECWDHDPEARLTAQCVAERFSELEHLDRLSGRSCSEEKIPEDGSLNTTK

SMILES	Kd [1]	Kd [2]	Kd [3]	Kd [4]	Kd (TGF-beta receptor type-2)	Kd [5]
CNC(=O)c1nn(C)c2c1C(C)(C)Cc1cnc(Nc3ccc(N4CCN(C)CC4)cc3)nc1-2 [MILCICLIB]	> 30 µM (inactive)	4.29 µM (active)	0.054 µM (active)	> 30 µM (inactive)	> 30 µM (inactive)	
Cc1[nH]c(/C=C2\C(=O)Nc3ccccc32)c(C)c1CCC(=O)O [ORANTINIB]	> 30 µM (inactive)	> 30 µM (inactive)			> 30 µM (inactive)	
NC(=O)c1c(OCc2c(F)cc(Br)cc2F)nsc1NC(=O)NCCCCN1CCCC1 [OSI-632]	> 30 µM (inactive)	0.669 µM (active)				
CCCCCCCCCCCCCCCCCCOP(=O)([O-])OC1CC[N+](C)(C)CC1 [PERIFOSINE]	> 30 µM (inactive)	> 30 µM (inactive)	> 30 µM (inactive)	> 30 µM (inactive)		> 30 µM (inactive)
CC(=O)NCC(=O)N1[C@@H]2CC[C@H]1c1ccc(Nc3ncc(C(F)(F)F)c(NC4CCC4)n3)cc12 [PF-03814735]	> 30 µM (inactive)	> 30 µM (inactive)			> 30 µM (inactive)	
CNC(=O)c1cc(Oc2ccc(NC(=O)Nc3cc(C(C)(C)C)nn3-c3ccc4ncccc4c3)c(F)c2)ccn1 [REBASTINIB]	> 30 µM (inactive)			> 30 µM (inactive)	> 30 µM (inactive)	1.5 µM (active)
N#CC1(c2ccc(NC(=O)c3cccnc3NCc3ccncc3)cc2)CCCC1 [RIVOCERANIB]	> 30 µM (inactive)	> 30 µM (inactive)	> 30 µM (inactive)		> 30 µM (inactive)	> 30 µM (inactive)
O=C(NOCCO)c1cc(CN2OCCCC2=O)c(F)c(F)c1Nc1ccc(I)cc1F [RO-4987655]	> 30 µM (inactive)					
N#CC[C@H](C1CCCC1)n1cc(-c2ncnc3[nH]ccc23)cn1 [RUXOLITINIB]	> 30 µM (inactive)					
O=c1[nH]ccc2cc(OC3CCNCC3)ccc12 [SAR-407899 FREE BASE]	> 30 µM (inactive)	> 30 µM (inactive)	> 30 µM (inactive)		> 30 µM (inactive)	> 30 µM (inactive)
CN1CCN(CCOc2cc(OC3CCOCC3)c3c(Nc4c(Cl)ccc5c4OCO5)ncnc3c2)CC1 [SARACATINIB]	> 30 µM (inactive)		0.14 µM	> 30 µM (inactive)	> 30 µM (inactive)	> 30 µM (inactive)
O=C(Cc1ccc(-c2ccc(OCCN3CCOCC3)cc2)cn1)NCc1ccccc1 [TIRBANIBULIN]	> 30 µM (inactive)	> 30 µM (inactive)	> 30 µM (inactive)		> 30 µM (inactive)	> 30 µM (inactive)
Cn1ncc(Cl)c1-c1cc(C(=O)N[C@H](CN)Cc2ccc(F)c(F)c2)oc1Cl [UPROSERTIB]	> 30 µM (inactive)	> 30 µM (inactive)	> 30 µM (inactive)			> 30 µM (inactive)
C[C@@H](N)c1ccc(C(=O)Nc2ccnc3[nH]ccc23)cc1 [Y-39983]	> 30 µM (inactive)	> 30 µM (inactive)	> 30 µM (inactive)		> 30 µM (inactive)	> 30 µM (inactive)
